From ChEMBL document CHEMBL5303304, “EUbOPEN Chemogenomics Library - IncuCyte” (2023)

Assays:
Assay type in all cases: toxicity, cell-based
U2OS = test: Incucyte cell viability with U2OS; conditions: human, 10 µM, compound concentration 10 uM
HEK-293T = test: Incucyte cell viability with HEK293T; conditions: human, 10 µM, compound concentration 10 uM
Fibroblast = test: Incucyte cell viability with human fibroblast; conditions: 10 µM, compound concentration 10 uM
Note: unitless GR value; below 1 slowed growth and below 0 cell loss.

SMILES	Growth Rate (U2OS; 6 h, replicate number 1)	Growth Rate (U2OS; 6 h, replicate number 2)	Growth Rate (U2OS; 12 h, replicate number 1)	Growth Rate (U2OS; 12 h, replicate number 2)	Growth Rate (U2OS; 18 h, replicate number 1)	Growth Rate (U2OS; 24 h, replicate number 1)	Growth Rate (U2OS; 24 h, replicate number 2)	Growth Rate (HEK-293T; 6 h, replicate number 2)	Growth Rate (HEK-293T; 12 h, replicate number 2)	Growth Rate (HEK-293T; 18 h, replicate number 1)	Growth Rate (HEK-293T; 18 h, replicate number 2)	Growth Rate (HEK-293T; 24 h, replicate number 1)	Growth Rate (HEK-293T; 24 h, replicate number 2)	Growth Rate (Fibroblast; 0 h, replicate number 1)	Growth Rate (Fibroblast; 18 h, replicate number 1)	Growth Rate (Fibroblast; 24 h, replicate number 1)	Growth Rate (U2OS; 0 h, replicate number 1)	Growth Rate (U2OS; 18 h, replicate number 2)	Growth Rate (Fibroblast; 0 h, replicate number 2)	Growth Rate (Fibroblast; 18 h, replicate number 2)	also measured
Cn1c(C2(NC(=O)c3ccc4c(C5CCCC5)c(-c5ncc(Br)cn5)n(C)c4c3)CCC2)nc2ccc(/C=C/C(=O)O)cc21 [DELEOBUVIR]	0.31	0.75	0.44	0.92	0.49	0.7	0.88	0.72	0.88	0.92	0.88	0.91	0.85	-1	0.98	0.85					
[2H]C([2H])([2H])NC(=O)c1nnc(NC(=O)C2CC2)cc1Nc1cccc(-c2ncn(C)n2)c1OC [DEUCRAVACITINIB]	0.29	0.63	0.68	0.76	0.89	0.97	0.74	0.51	0.56	0.78	0.68	0.85	0.76	0.51			0.39	0.71	0	0.85	Growth Rate (HEK-293T; 0 h, replicate number 2): 0.09; Growth Rate (HEK-293T; 6 h, replicate number 1): 0.66; Growth Rate (HEK-293T; 12 h, replicate number 1): 0.82; Growth Rate (Fibroblast; 24 h, replicate number 2): 0.9
C[C@@H]1CC[C@@]2(OC1)O[C@H]1[C@@H](O)[C@H]3[C@@H]4CC[C@H]5C[C@@H](O[C@@H]6O[C@H](CO)[C@H](O[C@@H]7O[C@H](CO)C(O)[C@H](O[C@@H]8OC[C@@H](O)[C@H](O)[C@H]8O)[C@H]7O[C@@H]7O[C@H](CO)[C@H](O)[C@H](O[C@@H]8O[C@H](CO)[C@@H](O)[C@H](O)[C@H]8O)[C@H]7O)[C@H](O)[C@H]6O)[C@H](O)C[C@]5(C)[C@H]4CC[C@]3(C)[C@H]1[C@@H]2C (stereo partly specified) [DIGITONIN]		0.68	0.85	0.67	0.96	1	0.6	0.94	0.65		0.68		0.72	0.3	0.93	0.88	0.49	0.6	0.94	0.73	Growth Rate (U2OS; 0 h, replicate number 2): 0.74; Growth Rate (HEK-293T; 0 h, replicate number 1): -0.37; Growth Rate (Fibroblast; 6 h, replicate number 2): 0.68; Growth Rate (Fibroblast; 12 h, replicate number 2): 0.67; Growth Rate (Fibroblast; 24 h, replicate number 2): 0.85
COc1ccc([C@@H]2Sc3ccccc3N(CCN(C)C)C(=O)[C@@H]2OC(C)=O)cc1.Cl [DILTIAZEM HYDROCHLORIDE]								0.11	0.55		0.86		0.86	0.54	0.89	0.57		0.94	-0.94	0.94	Growth Rate (U2OS; 0 h, replicate number 2): -0.41; Growth Rate (HEK-293T; 0 h, replicate number 1): 0.6; Growth Rate (Fibroblast; 12 h, replicate number 1): -0.67; Growth Rate (Fibroblast; 24 h, replicate number 2): 0.87
C[S+](C)[O-] [DIMETHYL SULFOXIDE]	0.89	0.27		0.44			0.44	0.48	0.78	0.88	0.83	0.9	0.69		0.87			0.5			Growth Rate (U2OS; 0 h, replicate number 2): 0.1; Growth Rate (HEK-293T; 0 h, replicate number 1): 0.12; Growth Rate (HEK-293T; 0 h, replicate number 2): 0.07; Growth Rate (HEK-293T; 12 h, replicate number 1): 0.83; Growth Rate (Fibroblast; 6 h, replicate number 1): 0.99; Growth Rate (Fibroblast; 6 h, replicate number 2): 0.8; Growth Rate (Fibroblast; 12 h, replicate number 2): 0.83
Cc1ccc(-n2nc(C(C)(C)C)cc2NC(=O)Nc2ccc(OCCN3CCOCC3)c3ccccc23)cc1 [DORAMAPIMOD]				0.9			0.76			0.87		0.95					-1	0.87	0.08		Growth Rate (HEK-293T; 0 h, replicate number 1): -0.47; Growth Rate (HEK-293T; 6 h, replicate number 1): 0.67; Growth Rate (HEK-293T; 12 h, replicate number 1): 0.67
CSc1ccc(C(=O)/C=C/c2cc(C)c(OC(C)(C)C(=O)O)c(C)c2)cc1 [ELAFIBRANOR]	0.88	0.45	0.63	0.69	0.88	0.92	0.76	0.6	0.79		0.97		0.99	0.61	0.87		-0.15		0.85	0.9	Growth Rate (U2OS; 0 h, replicate number 2): 0.75; Growth Rate (HEK-293T; 0 h, replicate number 1): 0.18; Growth Rate (Fibroblast; 6 h, replicate number 2): 0.74; Growth Rate (Fibroblast; 12 h, replicate number 2): 0.59; Growth Rate (Fibroblast; 24 h, replicate number 2): 0.75
OC(CN1CCC(Cc2ccc(F)cc2)CC1)c1ccc(Cl)cc1 (stereo unspecified) [ELIPRODIL]				0.95						0.88									-0.95		Growth Rate (U2OS; 0 h, replicate number 2): -0.72; Growth Rate (HEK-293T; 0 h, replicate number 2): 0.62; Growth Rate (HEK-293T; 12 h, replicate number 1): 0.57; Growth Rate (Fibroblast; 6 h, replicate number 1): -0.61; Growth Rate (Fibroblast; 6 h, replicate number 2): 0.5; Growth Rate (Fibroblast; 12 h, replicate number 1): -0.13
COc1cc(F)ccc1-c1cc(Nc2cc(CS(C)(=N)=O)ccn2)ncc1F (stereo unspecified) [ENITOCICLIB]		0.69	0.57	0.36	0.29	0.27	0.14	-0.19	-0.41	-0.19	-0.4	-0.17	-0.34	-1			-1	0.3		0.96	Growth Rate (HEK-293T; 0 h, replicate number 1): -1; Growth Rate (HEK-293T; 0 h, replicate number 2): 0.31; Growth Rate (HEK-293T; 6 h, replicate number 1): 0.19; Growth Rate (HEK-293T; 12 h, replicate number 1): -0.15; Growth Rate (Fibroblast; 24 h, replicate number 2): 0.69
CN1CCN(c2ccc(C(=O)Nc3n[nH]c4ccc(Cc5cc(F)cc(F)c5)cc34)c(NC3CCOCC3)c2)CC1 [ENTRECTINIB]	-0.92	-0.57	-0.62	-0.45	-0.64	-0.66	-0.6	-0.99	-0.8	-0.67	-0.58	-0.54	-0.42	-0.42	-0.92	-0.82		-0.56		-0.89	Growth Rate (U2OS; 0 h, replicate number 2): -1; Growth Rate (HEK-293T; 6 h, replicate number 1): -0.98; Growth Rate (HEK-293T; 12 h, replicate number 1): -0.89; Growth Rate (Fibroblast; 6 h, replicate number 2): -1; Growth Rate (Fibroblast; 12 h, replicate number 2): -0.97; Growth Rate (Fibroblast; 24 h, replicate number 2): -0.77
CN(C)CCC[C@@]1(c2ccc(F)cc2)OCc2cc(C#N)ccc21 [ESCITALOPRAM]	0.62		1			0.9			0.97	0.56	0.59	0.6		-1	0.69	0.84	0.18			0.85	Growth Rate (HEK-293T; 0 h, replicate number 1): -0.16; Growth Rate (HEK-293T; 0 h, replicate number 2): 0.57; Growth Rate (HEK-293T; 12 h, replicate number 1): 0.84; Growth Rate (Fibroblast; 6 h, replicate number 1): 0.67; Growth Rate (Fibroblast; 24 h, replicate number 2): 0.74
CCOC(=O)c1cncn1[C@H](C)c1ccccc1 [ETOMIDATE]		0.83	0.97		0.9	0.98								0.28	0.21	-0.16	0.35	0.87	0.93		Growth Rate (U2OS; 0 h, replicate number 2): -0.28; Growth Rate (HEK-293T; 6 h, replicate number 1): 0.68
C[C@H]1CN(C2COC2)CCN1c1ccc(Nc2cc(-c3ccnc(N4CCn5c(cc6c5CC(C)(C)C6)C4=O)c3CO)cn(C)c2=O)nc1 [FENEBRUTINIB]	0.53		0.69	0.99		0.81	1	0.76						-1				0.98	-0.77	0.94	Growth Rate (HEK-293T; 6 h, replicate number 1): 0.81; Growth Rate (Fibroblast; 6 h, replicate number 1): 0.44; Growth Rate (Fibroblast; 12 h, replicate number 2): 0.46
COCCNc1cc(NC(=O)N2CCCc3cc(CN4CCN(C)CC4=O)c(C=O)nc32)ncc1C#N [FGF401]	0.86		0.86		0.93	0.98		0.95	0.82	0.87	0.98				0.24	0.74	-0.62		0.95		Growth Rate (HEK-293T; 0 h, replicate number 2): 0.45; Growth Rate (HEK-293T; 6 h, replicate number 1): 0.68; Growth Rate (Fibroblast; 6 h, replicate number 1): 0.08; Growth Rate (Fibroblast; 12 h, replicate number 1): -1
